{"source": "patent US12281123B2", "about": "“Benzoxazinone compounds as KLK5/7 dual inhibitors” (MOLECULAR SKIN THERAPEUTICS, INC., priority 2019, dated 2025)", "tested_on": "KLK proteases in human skin extract", "test": "Inhibition of protease activity in human skin extract", "assay_type": "biochemical", "protocol": "Materials: The peptide substrates PS-01 (YRSR-pNA Tyr-Arg-Ser-Arg-pNA) (SEQ ID NO. 1) and PS-02 (Lys-His-Leu-Tyr-pNA) (SEQ ID NO. 2) were synthesized by Zamboni Chemical Solutions (Montreal, Canada). Human epidermis samples were obtained from Biopredic (Saint-Grégoire, France). The BCA protein assay kit was bought from VWR.\nPreparation of skin extract: The epidermis was frozen and lyophilized. A sample of 15 mg lyophilized epidermis was immersed in 1 mL high salt buffer (100 mM Tris, 5 mM EDTA, 2M KCl, pH 8), frozen twice in dry ice and thawed. After incubation overnight at 4° C. and addition of six 2.4 mm metal beads, the sample was homogenized in a Bertin Precellys Homogenizer (Atkinson, NH) three times at […] for 20 seconds each and cooled in between for 30 seconds. After centrifugation at maximal speed in a desktop minifuge, the protein concentration of the supernatant was determined by BCA assay (˜0.5 mg/mL).\nInhibition of protease activity in skin extract: Stock solutions of 200, 66, 22 and 0 μM of the tested compound in DMSO were prepared. Substrate stocks of 1100 μM PS-01 and PS-02 were prepared by dissolving in water. The wells of a 384 well plate was filled with 50 μL 2× assay buffer (see above) and then 45 μL substrate stock and 5 μL of the test compound were added. The reaction was started by addition of 10 μL skin extract for the substrate PS-02 and 5 μL for the substrate PS-01. The substrate hydrolysis was monitored in multi-well plate reader at 405 nm.\nChromogenic substrate cleavage progressions of Compounds 1.001, 1.002, and 14 were tested according to human stratum corneum extract assay of Example 4 using KLK5 and KLK7 preferred chromogenic peptide substrates (PS-01 and PS-02). The proteolytic cleavage of KLK5 selective substrate in skin extract by Compounds 1.001, 1.002, and 14 are compared and shown in FIGS. 4A-4D. NSK refers to extract from skin freshly prepared; and OSK refers to extract from skin post freeze thaw.", "key": {"[1]": {"conditions": "human skin extract, Conc 3.3 μM"}}, "note": "Entries after “also recorded” stand apart in the source; their conditions may differ. Marks after values point to notes of the source that are not given here."}
{"smiles": "CS(=O)(=O)c1cc(CO)ccc1-c1nc2cc3c(cc2c(=O)o1)OCCO3", "note": "[Compound 1.001, 2-(4-(Hydroxymethyl)-2-(methylsulfonyl)phenyl)-7,8-dihydro-4H-[1,4]dioxino[2′,3′:4,5]benzo[1,2-d][1,3]oxazin-4-one]", "values": [{"measurement": "Inhibition of proteolytic activity of skin extract, in words", "setting": "compared to compounds 14 and 1.002, FIGS. 4A-4D (NSK), KLK5 selective substrate", "result": "more potent inhibition of proteolytic activity; also recorded: more potent inhibitor of the proteolytic activity of skin extract"}, {"measurement": "Initial rate of proteolytic activity", "setting": "human skin extract, Conc 1 μM", "result": "0.04* Absorbance405/min"}, {"measurement": "Initial rate of substrate hydrolysis", "setting": "human skin extract, Conc 1 μM", "result": "0.02* Absorbance405/min"}, {"measurement": "Initial rate of proteolytic activity", "setting": "[1]", "result": "0.07* Absorbance405/min"}, {"measurement": "Initial rate of substrate hydrolysis", "setting": "[1]", "result": "0.04* Absorbance405/min"}, {"measurement": "Rate in Skin Assay", "setting": "human skin extract, compound concentration not given", "result": "0.004* Absorbance405/min"}]}
